Where “and” joins values, the source holds several entries; their conditions need not be identical. Identical values can stand only once.
System: 171881-019-R-J1-PDC complex spheroid viability
Test: Anticancer human tumor 171881-019-R-J1-PDC patient-derived invasive breast carcinoma cell line growth inhibition
Settings: for viability, T/C: stronger effect = lower value
Outline: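 Multicellular complex spheroids of tumor cells with human endothelial cells (HUVEC) and mesenchymal stem cells; the LSD1 inhibitor iadademstat was combined with standard-of-care or investigational agents. Top concentration at or near clinical Cmax, half-log dilutions; final DMSO ≤0.25%.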

[1] = curve of first compound, second compound 0.1 µM
[2] = curve of first compound, second compound 0.316 µM
[3] = curve of first compound, second compound 1 µM
[4] = curve of first compound, second compound 3.16 µM
[5] = curve of first compound, second compound 10 µM
[6] = second compound 0.1 µM, first compound 0.00316 µM
[7] = second compound 0.1 µM, first compound 0.01 µM
[8] = second compound 0.1 µM, first compound 0.0316 µM
[9] = second compound 0.1 µM, first compound 0.1 µM
[10] = second compound 0.316 µM, first compound 0.00316 µM
[11] = second compound 0.316 µM, first compound 0.01 µM
[12] = second compound 0.316 µM, first compound 0.0316 µM
[13] = second compound 0.316 µM, first compound 0.1 µM
[14] = second compound 1 µM, first compound 0.00316 µM
[15] = second compound 1 µM, first compound 0.01 µM
[16] = second compound 1 µM, first compound 0.0316 µM
[17] = second compound 1 µM, first compound 0.1 µM
[18] = second compound 3.16 µM, first compound 0.00316 µM
[19] = second compound 3.16 µM, first compound 0.01 µM
[20] = second compound 3.16 µM, first compound 0.0316 µM
[21] = second compound 3.16 µM, first compound 0.1 µM
[22] = second compound 10 µM, first compound 0.00316 µM
[23] = second compound 10 µM, first compound 0.01 µM
[24] = second compound 10 µM, first compound 0.0316 µM
[25] = second compound 10 µM, first compound 0.1 µM
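Further: spheroids exposed to agents for 7 days after 3 days growth.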

Q: For `Nc1ccccc1NC(=O)c1ccc(CNC(=O)OCc2cccnc2)cc1` + NC1CC1c1ccc(-c2cccc(O)c2)cc1, which IC50 [1] is on record?
A: The IC50 was 525 nM.

Q: What about the IC50 [2] of the same compound?
A: The IC50 was 530 nM.

Q: And the IC50 [3]?
A: Its IC50 is 520 nM.

Q: And the IC50 [4]?
A: The IC50 was 481 nM.

Q: And the IC50 [5]?
A: Its IC50 is 441 nM.

Q: And the viability, T/C (second compound 0.1 µM, first compound 0.00949 µM)?
A: Its viability, T/C is 101%.

Q: What about the viability, T/C (second compound 0.1 µM, first compound 0.03 µM) of the same compound?
A: The viability, T/C was 96.2%.

Q: What about the viability, T/C (second compound 0.1 µM, first compound 0.0949 µM) of the same compound?
A: Its viability, T/C is 107%.

Q: What about the viability, T/C (second compound 0.1 µM, first compound 0.3 µM) of the same compound?
A: Its viability, T/C is 89.4%.

Q: What about the viability, T/C (second compound 0.1 µM, first compound 0.949 µM) of the same compound?
A: Its viability, T/C is 8.16%.

Q: What about the viability, T/C (second compound 0.1 µM, first compound 3 µM) of the same compound?
A: Its viability, T/C is 0.69%.

Q: And the viability, T/C (second compound 0.316 µM, first compound 0.00949 µM)?
A: The viability, T/C was 104%.

Q: What about the viability, T/C (second compound 0.316 µM, first compound 0.03 µM) of the same compound?
A: The viability, T/C was 102%.

Q: What about the viability, T/C (second compound 0.316 µM, first compound 0.0949 µM) of the same compound?
A: Its viability, T/C is 109%.

Q: And the viability, T/C (second compound 0.316 µM, first compound 0.3 µM)?
A: The viability, T/C was 90.8%.

Q: And the viability, T/C (second compound 0.316 µM, first compound 0.949 µM)?
A: The viability, T/C was 8.21%.

Q: And the viability, T/C (second compound 0.316 µM, first compound 3 µM)?
A: Its viability, T/C is 0.84%.

Q: What about the viability, T/C (second compound 1 µM, first compound 0.00949 µM) of the same compound?
A: The viability, T/C was 101%.

Q: What about the viability, T/C (second compound 1 µM, first compound 0.03 µM) of the same compound?
A: The viability, T/C was 103%.

Q: And the viability, T/C (second compound 1 µM, first compound 0.0949 µM)?
A: The viability, T/C was 107%.

Q: And the viability, T/C (second compound 1 µM, first compound 0.3 µM)?
A: The viability, T/C was 88.6%.

Q: What about the viability, T/C (second compound 1 µM, first compound 0.949 µM) of the same compound?
A: Its viability, T/C is 7.91%.

Q: And the viability, T/C (second compound 1 µM, first compound 3 µM)?
A: Its viability, T/C is 0.77%.

Q: And the viability, T/C (second compound 3.16 µM, first compound 0.00949 µM)?
A: Its viability, T/C is 100%.

Q: What about the viability, T/C (second compound 3.16 µM, first compound 0.03 µM) of the same compound?
A: Its viability, T/C is 102%.

Q: And the viability, T/C (second compound 3.16 µM, first compound 0.0949 µM)?
A: Its viability, T/C is 90.8%.

Q: What about the viability, T/C (second compound 3.16 µM, first compound 0.3 µM) of the same compound?
A: The viability, T/C was 80.6%.

Q: And the viability, T/C (second compound 3.16 µM, first compound 0.949 µM)?
A: Its viability, T/C is 6.04%.

Q: What about the viability, T/C (second compound 3.16 µM, first compound 3 µM) of the same compound?
A: Its viability, T/C is 0.79%.

Q: And the viability, T/C (second compound 10 µM, first compound 0.00949 µM)?
A: The viability, T/C was 88%.

Q: What about the viability, T/C (second compound 10 µM, first compound 0.03 µM) of the same compound?
A: The viability, T/C was 82.6%.

Q: What about the viability, T/C (second compound 10 µM, first compound 0.0949 µM) of the same compound?
A: The viability, T/C was 82.3%.

Q: What about the viability, T/C (second compound 10 µM, first compound 0.3 µM) of the same compound?
A: Its viability, T/C is 70.9%.

Q: And the viability, T/C (second compound 10 µM, first compound 0.949 µM)?
A: Its viability, T/C is 8.68%.

Q: And the viability, T/C (second compound 10 µM, first compound 3 µM)?
A: The viability, T/C was 0.61%.

Q: Which results are given for `CC(C)CC(NC(=O)C(Cc1ccccc1)NC(=O)c1cnccn1)B(O)O` (configuration not stated) + NC1CC1c1ccc(-c2cccc(O)c2)cc1?
A: IC50 [1]: < 0.316 nM; IC50 [2]: < 0.316 nM; IC50 [3]: < 0.316 nM; IC50 [4]: < 0.316 nM; IC50 [5]: < 0.316 nM; viability, T/C (second compound 0.1 µM, first compound 0.000316 µM): 22.8%; viability, T/C (second compound 0.1 µM, first compound 0.001 µM): 21.4%; viability, T/C [6]: 16.4%; viability, T/C [7]: 10.8%; viability, T/C [8]: 9.75%; viability, T/C [9]: 13.1%; viability, T/C (second compound 0.316 µM, first compound 0.000316 µM): 24.2%; viability, T/C (second compound 0.316 µM, first compound 0.001 µM): 8.57%; viability, T/C [10]: 10.7%; viability, T/C [11]: 11%; viability, T/C [12]: 13.4%; viability, T/C [13]: 9.51%; viability, T/C (second compound 1 µM, first compound 0.000316 µM): 23.8%; viability, T/C (second compound 1 µM, first compound 0.001 µM): 18.2%; viability, T/C [14]: 6.24%; viability, T/C [15]: 7.73%; viability, T/C [16]: 7.79%; viability, T/C [17]: 7.59%; viability, T/C (second compound 3.16 µM, first compound 0.000316 µM): 3.29%; viability, T/C (second compound 3.16 µM, first compound 0.001 µM): 4.7%; viability, T/C [18]: 3.45%; viability, T/C [19]: 8.88%; viability, T/C [20]: 6.7%; viability, T/C [21]: 5.34%; viability, T/C (second compound 10 µM, first compound 0.000316 µM): 5.61%; viability, T/C (second compound 10 µM, first compound 0.001 µM): 8.2%; viability, T/C [22]: 0.52%; viability, T/C [23]: 3.61%; viability, T/C [24]: 8.57%; viability, T/C [25]: 1.8%

Q: What does the source list for `Nc1ncn(C2CC(O)C(CO)O2)c(=O)n1` (configuration not stated) + NC1CCC(NC2CC2c2ccccc2)CC1?
A: IC50 [1]: > 1000 nM; IC50 [2]: > 1000 nM; IC50 [3]: > 1000 nM; IC50 [4]: > 1000 nM; IC50 [5]: > 1000 nM; viability, T/C [6]: 88.4%; viability, T/C [7]: 93.3%; viability, T/C [8]: 93.1%; viability, T/C [9]: 115%; viability, T/C (second compound 0.1 µM, first compound 0.316 µM): 111%; viability, T/C (second compound 0.1 µM, first compound 1 µM): 101%; viability, T/C [10]: 96%; viability, T/C [11]: 81.7%; viability, T/C [12]: 92.9%; viability, T/C [13]: 122%; viability, T/C (second compound 0.316 µM, first compound 0.316 µM): 115%; viability, T/C (second compound 0.316 µM, first compound 1 µM): 94.2%; viability, T/C [14]: 94.9%; viability, T/C [15]: 81.1%; viability, T/C [16]: 95.6%; viability, T/C [17]: 123%; viability, T/C (second compound 1 µM, first compound 0.316 µM): 117%; viability, T/C (second compound 1 µM, first compound 1 µM): 97.1%; viability, T/C [18]: 82.5%; viability, T/C [19]: 92.9%; viability, T/C [20]: 106%; viability, T/C [21]: 122%; viability, T/C (second compound 3.16 µM, first compound 0.316 µM): 114%; viability, T/C (second compound 3.16 µM, first compound 1 µM): 97.7%; viability, T/C [22]: 86.1%; viability, T/C [23]: 105%; viability, T/C [24]: 112%; viability, T/C [25]: 102%; viability, T/C (second compound 10 µM, first compound 0.316 µM): 111%; viability, T/C (second compound 10 µM, first compound 1 µM): 99.8%

Q: With `O=C(C=Cc1cccc(S(=O)(=O)Nc2ccccc2)c1)NO` as the compound, how does the viability, T/C (compound 0.00949 µM) read?
A: Its viability, T/C is 95.8% and 103%.

Q: What about the viability, T/C (compound 0.03 µM) of the same compound?
A: Its viability, T/C is 96.6% and 93%.

Q: What about the viability, T/C (compound 0.0949 µM) of the same compound?
A: Its viability, T/C is 111% and 99.2%.

Q: What about the viability, T/C (compound 0.3 µM) of the same compound?
A: The viability, T/C was 72.5% and 65.1%.

Q: And the viability, T/C (compound 0.949 µM)?
A: Its viability, T/C is 0.88% and 1.85%.

Q: What about the viability, T/C (compound 3 µM) of the same compound?
A: The viability, T/C was 0.2% and 0.16%.

Q: What about the IC50 (curve of compound) of the same compound?
A: Its IC50 is 430 nM and 395 nM.
